Measurements from paper PMC5735092 (Scientific Reports, 2017).

Experiments:
[1] = test system: VEEV-TC83luc; type: cell-based, Venezuelan equine encephalitis virus
[2] = test system: C-GFP nuclear import in HeLa cells; type: cell-based
[3] = test system: C-GFP nuclear accumulation in HeLa cells; type: cell-based
[4] = test system: GFP-T-ag nuclear accumulation in HeLa cells; type: cell-based
[5] = test system: Vero cells
[6] = test system: TC83-WT; type: cell-based, Venezuelan equine encephalitis virus
[7] = test system: IMPα/β1 binding to HIV-1 integrase; details: cited from earlier work
[8] = test system: HIV-1; details: cited from earlier work
[9] = test system: VEEV; details: cited from earlier work
[10] = molecular target: IMPα/β1:C (Mus musculus, UniProt P52293); type: binding
[11] = test system: VEEV C localization in infected Vero cells; type: cell-based

Row | Compound | EC50 [1] [µM] | initial rate of C nuclear import [2] | maximal recovery of nuclear fluorescence (Fn(rec) max), lower than in DMSO alone treated cells [2] [%] | nuclear accumulation of C-GFP [3] | nuclear accumulation of GFP-T-ag [4] | CC50 [5] [µM] | titer of wild-type TC83 [6] | inhibition of IMPα/β1 binding to HIV-1 integrase [7] | anti-HIV-1 activity [8] | activity against VEEV [9] | IC50 [10] [µM] | nuclear C staining in infected cells [11]
1 | CC(=O)Nc1ccc(S(=O)(=O)Nc2ccc(C3(c4ccc(NS(=O)(=O)c5ccc(NC(C)=O)cc5)cc4)c4ccccc4-c4ccccc43)cc2)cc1 [AN-329/40863801] | > 50 | significantly reduced | ~30 | no significant effect | no significant effect | > 100 |  |  |  |  |  | 
2 | Ivermectin |  |  |  | reduced nuclear accumulation of both constructs | reduced nuclear accumulation of both constructs |  | reduced the titer to a lesser extent | inhibitors of IMPα/β1 binding to HIV-1 integrase | anti-HIV-1 activity | active against VEEV |  | 
3 | O=C(c1cc(C(=O)N2CCN(c3cccc(Cl)c3)CC2)cc(C(=O)N2CCN(c3cccc(Cl)c3)CC2)c1)N1CCN(c2cccc(Cl)c2)CC1 [AK-968/15362127] |  |  |  |  |  |  |  |  |  |  | 32 ± 4.6 | 
4 | CC#C[C@]1(O)CC[C@H]2[C@@H]3CCC4=CC(=O)CCC4=C3[C@@H](c3ccc(N(C)C)cc3)C[C@@]21C [Mifepristone] |  |  |  |  |  |  | significantly reduced the titer | inhibitors of IMPα/β1 binding to HIV-1 integrase | anti-HIV-1 activity | active against VEEV |  | reduced nuclear C staining
